According to US12617745B2, “Curcusone diterpenoids and uses thereof” (Purdue Research Foundation, priority 2020, dated 2026):
Where two headings read alike, the source gives them in different places. Each block holds one compound with its values, some of them ahead of it. Peptide text beside a SMILES is read from it. * marks the point of attachment. Cbz = O=C(OCc1ccccc1)*

Experiments:
[1] = tested on: MCF-7 cells; assay: Cytotoxicity in MCF-7 cells, WST-1 assay; assay type: cell-based, human; details: for EC50 values against MCF-7 cells, in words / EC50 / IC50 / cytotoxicity / anticancer activity in MCF-7 cells, comparative statement: 24 h compound treatment, WST-1; for EC50: read-out: EC50, viability of MCF-7 cells; for IC50: read-out: IC50 value / antiproliferation activity in MCF-7 cells
Excerpt: The absorbance at 420 nm and 630 nm was then acquired using a BioTek Synergy H1 microplate reader. Cell viability results were plotted in GraphPad Prism 7.

[2] = biological target: T1, BRAT1 (Homo sapiens, UniProt Q6PJG6); assay: In situ competitive pulldown assay via Western blotting; assay type: cell-based; design: endogenous in cells; host or cells: HeLa, MCF-7, MDA-MB-231 (live cells or HeLa lysate)
T1 sequence (Q6PJG6 1-821): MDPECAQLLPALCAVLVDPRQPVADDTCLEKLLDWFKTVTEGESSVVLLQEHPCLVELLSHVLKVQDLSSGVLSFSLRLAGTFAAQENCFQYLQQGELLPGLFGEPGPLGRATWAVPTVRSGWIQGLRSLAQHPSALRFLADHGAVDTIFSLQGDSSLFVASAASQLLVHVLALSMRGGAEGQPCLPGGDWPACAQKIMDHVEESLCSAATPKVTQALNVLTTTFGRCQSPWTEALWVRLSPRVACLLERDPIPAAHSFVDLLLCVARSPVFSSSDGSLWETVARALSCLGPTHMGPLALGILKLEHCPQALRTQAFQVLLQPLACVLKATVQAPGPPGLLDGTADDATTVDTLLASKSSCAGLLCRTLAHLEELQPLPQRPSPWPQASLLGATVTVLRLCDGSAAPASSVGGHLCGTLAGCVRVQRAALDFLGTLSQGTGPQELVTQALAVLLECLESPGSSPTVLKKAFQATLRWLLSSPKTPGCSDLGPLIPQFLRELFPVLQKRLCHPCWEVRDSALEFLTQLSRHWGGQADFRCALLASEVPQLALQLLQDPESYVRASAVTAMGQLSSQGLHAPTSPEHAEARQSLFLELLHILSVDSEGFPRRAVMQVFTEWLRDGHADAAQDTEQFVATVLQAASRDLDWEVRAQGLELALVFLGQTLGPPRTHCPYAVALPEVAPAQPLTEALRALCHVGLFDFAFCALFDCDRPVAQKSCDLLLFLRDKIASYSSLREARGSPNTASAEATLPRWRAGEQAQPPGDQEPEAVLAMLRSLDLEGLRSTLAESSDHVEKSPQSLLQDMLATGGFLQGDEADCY

[3] = tested on: HeLa, MCF-7 and MDA-MB-231 cells; assay: Transwell migration assay; assay type: cell-based, human; details: 1 μM, 24 hours, all cell lines
[4] = biological target: T1, BRAT1; assay: In situ dose response via competitive pulldown assay with probe 37; assay type: cell-based
Procedure: HeLa (2.0e6) cells were seeded in 60 mm dishes. […] The lysates were prepared and quantified as described above. Lysates (2 mg/mL, 140 μL) was treated with 10 μM 37 (50× stock in DMSO) for one hour at r.t. and then subjected to click chemistry with biotin azide as described above for one hour at r.t. Proteins were precipitated, re-solubilized in 0.2% SDS in PBS, enriched with 50 μL streptavidin beads, and washed as described above. Proteins were eluted using 30 μL SDS-PAGE reducing loading buffer (4×), subjected to 10 min heat denaturation (95° C.), separated using a 11% SDS-PAGE gel, and visualized via Western blotting as described above. Images were quantified with ImageJ. EC50 and Kitz-Wilson binding constants were calculated using GraphPad Prism 7.

[5] = tested on: HeLa cells; assay: Global proteomics profiling using LC-MS/MS; assay type: cell-based, human; details: 3 μM, 24 h, among 3347 quantified proteins
[6] = biological target: T1, BRAT1; assay: In situ competitive MS-based target identification; assay type: cell-based; details: MCF-7 cells, 30 μM 1d 4 hours, 10 μM 37
Procedure: MCF-7 (8e6) cells were seeded in 10 cm Petri dishes and incubated overnight. […] Lysate was prepared as described above. Lysate (2 mg/mL, 0.75 mL) was treated with 10 μM 37 (50× stock in DMSO) for one hour at r.t. and then subjected to click chemistry. […] (Click Chemistry Tools, 50 μM, 50× stock in DMSO), tris(2-carboxyethyl)phosphine hydrochloride (TCEP) (1 mM, Sigma-Aldrich C4706-2G, 50× fresh stock in water), tris[(1-benzyl-1H1,2,3-triazol-4-yl)methyl]amine (TBTA) (100 μM, Click Chemistry Tools, 16× stock in DMSO:tBuOH 1:4), and copper(II) sulfate (Sigma-Aldrich, 1 mM, 50× stock in water) were added to the proteome and left to react for one hour at r.t. […] Samples were analyzed by LC-MS/MS (see below) and the MS data was processed with MaxQuant (see below).
Peptides were resuspended in water with 0.1% formic acid (FA) and analyzed using EASY-nLC 1200 nano-UHPLC coupled to Q Exactive HF-X Quadrupole-Orbitrap mass spectrometer (Thermo Scientific). […]
The MS data was analyzed with MaxQuant9 (V1.6.1.0)^7 and searched against the human proteome (Uniprot) and a common list of contaminants (included in MaxQuant). […] The minimum peptide length was set to 6 amino acids and peptide re-quantification, label-free quantification (MaxLFQ) and “match between runs” were enabled. […]

[7] = biological target: T2, FLAG-BRAT1 (Homo sapiens, UniProt Q6PJG6); assay: Thermal shift assay of FLAG-BRAT1 via Western blotting; assay type: binding; details: HEK-293T lysate, 30 μM, 34° C. to 61° C.
T2 construct: expressed in transfected cells; host or cells: HEK-293T, transient transfection, lysate
T2 sequence (Q6PJG6 1-821): T1 sequence (Q6PJG6 1-821)
Procedure: HEK-293T (8e6) cells were seeded in a 10 cm dish in DMEM without pen-strep. After incubating overnight, 24 μg of FLAG-BRAT1 pExp plasmid was incubated for 15 min at r.t. with 96 μL of PEI MAX™ 40K (Polysciences 24765-1) in final volume of 2 mL Opti-MEM (Gibco 11058021). The mixture was then carefully added to the cells. After 24 hours, the cells were carefully washed twice with PBS, and the lysate was prepared by sonication in PBS as described above.
The supernatant was carefully isolated. SDS-PAGE reducing loading buffer (4×) was added to the isolated supernatant, and proteins were transferred to a PVDF (0.2 μm) membrane using wet transfer with tris-glycine transfer buffer (20% methanol) for one hour at 350 mA. Membrane was blocked with 5% milk in tris-buffered saline with 0.1% Tween 20 (TBST) for 30-60 minutes at r.t. and then incubated with primary rabbit polyclonal BRAT1 antibody (Novus NB100-2256, 1:2000 in 5% milk in TBST) overnight shaking at 4° C. Membrane was washed three times for five min with TBST and incubated with anti-rabbit Alexa Fluor 647 (Jackson ImmunoResearch Inc., 1:500 in 5% milk in TBST) for one hour at r.t. Membrane was then washed 3× with TBST and visualized with an Azure Biosystems Sapphire Biomolecular Imager. […]

[8] = biological target: T1, BRAT1; assay: Competitive BRAT1 pulldown with iodoacetamide (binding reversibility); design: endogenous in cells; host or cells: HeLa (HeLa lysate); details: HeLa lysate, IAA 30 mM 1 h pre- or posttreatment, 37 10 μM
Procedure: To evaluate the binding reversibility, we performed a competitive BRAT1 pulldown assay with the irreversible cysteine-reactive probe iodoacetamide (IAA). HeLa lysate was treated with 37 (10 μM) for 1 h with either pre- or posttreatment with IAA (30 mM) for 1 h followed by enrichment and Western blot analysis as described above.

[9] = biological target: T1, BRAT1; assay: BRAT1 protein level after 1d treatment (global proteomics, Western blot); assay type: cell-based; design: endogenous in cells; host or cells: HeLa, MCF-7, MDA-MB-231 (live cells or HeLa lysate); details: added for the final 4 hours of 1d treatment

Compound: C=C(C)C1CCC(=C)C2C3=C(C[C@H](C)C3=O)C(=O)C(C)=C[C@@H]12 (single isomer, unassigned; (-)) [1b, (−)-Curcusone B]
EC50 values against MCF-7 cells, in words [1]: micromolar
cytotoxicity value of synthetic sample versus naturally isolated counterpart ([1]; MCF-7 cells): virtually identical

competition of BRAT1 enrichment by 37 ([2]; HeLa and MDA-MB-231 cells): competed the enrichment of BRAT1
competition of BRAT1 enrichment by 37 ([2]; MCF-7 cells, 4 hours): competed
EC50 ([4]; in situ treatment of live HeLa cells, read-out: EC50, competition of BRAT1 enrichment by 37): 2.7 µM
concentration at 50% fractional occupancy (f occ. (50)) of BRAT1 ([4]; live HeLa cells, 4 h): 2.7 µM
protein competed from probe 37 enrichment [6]: best competed target was BRAT1
thermal stability of FLAG-BRAT1 [7]: thermal destabilization
Compound: C=C(C)C1CCC(=C)C2C3=C(CC(C)(O)C3=O)C(=O)C(C)=CC12 (single isomer, unassigned; (-)) [1d, (−)-Curcusone D]
reduction of cell migration [3]: ~4 fold
number of down-regulated proteins [5]: 42
number of up-regulated proteins [5]: 36
EC50 values against MCF-7 cells, in words [1]: micromolar
EC50 ([1]; Homo sapiens, MCF7): 13.8 µM

Compound: NC(=O)CI [IAA, iodoacetamide]
competition of BRAT1 enrichment by 37 [8]: competed BRAT1 enrichment by 37

Compound: CC(C)C[C@@H](C=O)NC(=O)[C@H](CC(C)C)NC(=O)[C@H](CC(C)C)NC(=O)OCc1ccccc1 [MG132] (Cbz-Leu-Leu-Leu-aldehyde)
BRAT1 protein levels with proteasome inhibitor [9]: recovered BRAT1 protein levels

Compound: C=C(C)[C@H]1CCC(=C)[C@@H]2[C@@H]1C=C(C)C(=O)[C@]21CC=C(C)C1=O [compound 3, (+)-Spirocurcasone]
IC50 [1]: 62.7 µM

Compound: (−)-dimericursone A [2a]
cytotoxicity / anticancer activity in MCF-7 cells, comparative statement [1]: no toxicity
EC50 [1]: > 100 µM

Compound: (−)-pyracurcasone [compound 33]
cytotoxicity / anticancer activity in MCF-7 cells, comparative statement [1]: slightly better antiproliferation activity
IC50 [1]: 8 µM
